Results as given in patent US8642647B2, “N1-benzo[1,3]dioxol-5-ylmethyl-N2-substituted biguanide derivative, preparation method thereof, and pharmaceutical composition containing same” (Hanall Biopharma Co., Ltd., priority 2008, dated 2014).
Structures can show the parent of a compound that is named as a salt.

Columns and labels:
Type in all cases: cell-based
[1] = test system: C2C12 cells; assay: Measurement of glucose absorption ability; conditions: 100 μM compound with 1 μM insulin, 24 hours, differentiated C2C12 cells; 3H-deoxy-glucose; higher value = stronger; more than 200% counts as glucose absorption ability
Procedure: (§1) 2 mM metformin was used as a comparative compound for each of the plates (control group).
C2C12 cells (ATCC: American Type Culture Collection), a muscle cell model, were induced to differentiate into muscle cells in 2% bovine fetal serum-containing media (DMEM (Gibco), FBS (Gibco)) for 6 days. The C2C12 cells which differentiated into muscle cells were transferred to serum-free low glucose media (DMEM (Gibco), FBS (Gibco)), treated with 100 μM of each of the compounds, and then cultured with 1 μM of insulin for 24 hours. After cultivation, the cells were treated with 1 μCi ^3H-deoxy-glucose (Amersham Pharmacia) and 10 μM deoxy-glucose (Sigma) at 37° C. for 15 minutes. The media were removed therefrom, and the cells were washed twice with PBS (phosphate buffered saline). The washed cells were treated with 0.1N NaOH and neutralized with 1N HCl. The content of glucose absorbed into the cells was measured with a liquid scintillation counter.
A higher measurement value means a stronger ability to reduce insulin resistance.

[2] = test system: HepG2 cells; assay: Measurement of triglyceride synthesis inhibitory ability; conditions: 24 hours, HepG2 cells, content of triglyceride formed, lower value = stronger inhibition; for Triglyceride (100 μM) aver.: 100 μM compound; for Triglyceride (500 μM) aver.: 500 μM compound
Procedure: as §1
HepG2 cells (ATCC: American Type Culture Collection) were cultured in 1% serum-containing media (DMEM (Gibco), FBS (Gibco)) for 24 hours, and then treated with 100 μM or 500 μM of each of the compounds prepared in Examples for 24 hours. Then, the cells were disrupted with a lysis solution (0.1 M potassium phosphate, pH 7.4, 0.05 M NaCl, 5 mM cholic acid, 0.1% Triton X-100). To the disrupted cells was added the same volume of a reaction solution (0.76 U/ml of a glycerol kinase (Asan Pharmaceutical Co., Ltd.), […] of a peroxidase (Asan Pharmaceutical Co., Ltd.), 22.2 U/ml of a glycerol oxidizing agent (Asan Pharmaceutical Co., Ltd.), and 300 μM of Amplex red as a fluorescent factor (Molecular Probe)), which was allowed to react at 37° C. for 30 minutes. After completion of the reaction, the content of triglyceride formed in the cell lysates was measured at a wavelength of 560/590 nm (ex/em) using a fluorescence microscope.
A lower measurement value means an increased triglyceride synthesis inhibitory ability.

[3] = test system: HepG2 cells; assay: Measurement of gluconeogenesis inhibitory ability; conditions: 100 μM compound, 24 hours, HepG2 cells, content of glucose formed from 14C-lactate, lower value = stronger inhibition; for activity at 100 µM: Homo sapiens, HepG2, 24 h, read-out: Gluconeogenesis inhibition (100 μM) aver.
Procedure: as §1
HepG2 cells (ATCC: American Type Culture Collection) were cultured in 10% serum-containing high glucose media, transferred to no serum-containing low glucose media (DMEM (Gibco), FBS (Gibco)), and then treated with 100 μM of each of the compounds for 24 hours. Then, the cells were treated with 0.5 μCi ^14C-lactate (Amersham Pharmacia) and 10 mM L-lactate (Sigma), and cultured for 4 hours. After cultivation, the media were removed therefrom, and the cells were washed with PBS, treated with 0.1N NaOH and kept at room temperature for 1 hour. Then, the cells were neutralized with 1N HCl, and the content of glucose formed in the cells was measured with a liquid scintillation counter.
A lower measurement value means an increased gluconeogenesis inhibitory ability.

[4] = test system: HepG2 cells; assay: Measurement of cholesterol synthesis inhibitory ability; conditions: for Cholesterol (100 μM) aver.: 100 μM compound; for Cholesterol (100 μM) aver. / Cholesterol (500 μM) aver.: 24 hours, HepG2 cells, content of cholesterol formed, lower value = stronger inhibition; for Cholesterol (500 μM) aver.: 500 μM compound
Procedure: as §1
A cholesterol synthesis inhibitory ability, which is an important function of AMPK (AMP-activated protein kinase), was measured using HepG2 cells (ATCC: American Type Culture Collection) as a hepatic cell model according to the following procedure.
The hepatic cell model HepG2 cells were cultured in 1% serum-containing media (DMEM (Gibco), FBS (Gibco)) for 24 hours, and then treated with 100 μM or 500 μM of each of the compounds prepared in Examples for 24 hours. Then, the cells were disrupted with a lysis solution (0.1 M potassium phosphate, pH 7.4, 0.05 M NaCl, 5 mM cholic acid, 0.1% Triton X-100 (Sigma)). To the disrupted cells was added the same volume of a reaction solution (2 U/ml of a cholesterol oxidizing agent, 2 U/ml of a peroxidase, 0.2 U/ml of a cholesterol esterase, and 300 μM of Amplex red as a fluorescent factor (Molecular Probe)), which was allowed to react at 37° C. for 30 minutes. After completion of the reaction, the content of cholesterol formed in the cell lysates was measured at a wavelength of 560/590 nm (ex/em) using a fluorescence microscope.
A lower measurement value means an increased cholesterol synthesis inhibitory ability.

Molecule | Glucose absorption (100 μM) aver. [1] [%] | Triglyceride (100 μM) aver. [2] | Triglyceride (500 μM) aver. [2] | Gluconeogenesis inhibition (100 μM) aver. ([3]; 100 µM) | Cholesterol (100 μM) aver. [4] | Cholesterol (500 μM) aver. [4] | activity at 100 µM [3] [%] | effect in inhibiting cholesterol synthesis better than that of the control group ([4]; 100 μM compound versus 2 mM metformin)
N1-benzo[1,3]dioxol-5-ylmethyl-N2-(1-adamantyl)biguanide hydrochloride (isomer) [Example 28] | 2.20 | 89.72 | 28.87 | 79.17 | 73.67 | 30.11 |  | 
Cl.N=C(N)NC(=NC1CCCCCC1)NCc1ccc2c(c1)OCO2 [Example 20, N1-benzo[1,3]dioxol-5-ylmethyl-N2-cycloheptyl biguanide hydrochloride] |  | 99.89 | 41.32 |  | 31.37 | −14.69 | 39.4 | 
COCCN=C(NCc1ccc2c(c1)OCO2)NC(=N)N.Cl [Example 31, N1-benzo[1,3]dioxol-5-ylmethyl-N2-(2-methoxyethyl)biguanide hydrochloride] |  | 74.51 | 73.00 |  | 84.45 | 69.16 | 100 | 
C=CCN=C(NCc1ccc2c(c1)OCO2)NC(=N)N [Example 18, N1-benzo[1,3]dioxol-5-ylmethyl-N2-allyl biguanide hydrochloride] |  | 97.00 | 46.89 |  | 40.31 | 9.71 | 95.1 | 
CCCCCN=C(NCc1ccc2c(c1)OCO2)NC(=N)N.Cl [Example 40, N1-benzo[1,3]dioxol-5-ylmethyl-N2-pentyl biguanide hydrochloride] |  | 101.4 | 50.00 |  | 57.36 | 27.89 | 84.6 | 
Cl.N=C(N)NC(=Nc1ccc(F)cc1)NCc1ccc2c(c1)OCO2 [Example 14, N1-benzo[1,3]dioxol-5-ylmethyl-N2-(4-fluorophenyl)biguanide hydrochloride] |  | 115.04 |  |  | 57.35 |  | 102 | 
COc1ccc(N=C(NCc2ccc3c(c2)OCO3)NC(=N)N)cc1.Cl [Example 15, N1-benzo[1,3]dioxol-5-ylmethyl-N2-(4-methoxyphenyl)biguanide hydrochloride] |  | 104.17 |  |  | 52.95 |  | 75.6 | at least 20 times
Cl.N=C(N)NC(=NCc1ccc(F)cc1)NCc1ccc2c(c1)OCO2 [Example 43, N1-benzo[1,3]dioxol-5-ylmethyl-N2-(4-fluorobenzyl)biguanide hydrochloride] |  | 82.02 | 63.67 |  | 73.10 | 47.65 | 83.5 | 
Cl.N=C(N)NC(=NC1CC1)NCc1ccc2c(c1)OCO2 [Example 38, N1-benzo[1,3]dioxol-5-ylmethyl-N2-cyclopropyl biguanide hydrochloride] |  | 95.00 | 61.43 |  | 57.32 | 47.06 | 78.9 | 
Cl.N=C(N)NC(=NC1CCCC1)NCc1ccc2c(c1)OCO2 [Example 19, N1-benzo[1,3]dioxol-5-ylmethyl-N2-cyclopentyl biguanide hydrochloride] |  | 100.59 | 80.60 |  | 57.58 | 27.93 | 92.7 | 
CCCCN=C(NCc1ccc2c(c1)OCO2)NC(=N)N.Cl [Example 39, N1-benzo[1,3]dioxol-5-ylmethyl-N2-butyl biguanide hydrochloride] |  | 98.77 | 64.23 |  | 70.48 | 49.52 | 87.3 | 
Cl.N=C(N)NC(=Nc1cc(Cl)cc(Cl)c1)NCc1ccc2c(c1)OCO2 [Example 34, N1-benzo[1,3]dioxol-5-ylmethyl-N2-(3,5-dichlorophenyl)biguanide hydrochloride] |  | 21.41 | 8.80 |  | 15.56 | 39.12 | 2.37 | 
Cc1ccc(CN=C(NCc2ccc3c(c2)OCO3)NC(=N)N)cc1.Cl [Example 11, N1-benzo[1,3]dioxol-5-ylmethyl-N2-(4-methylbenzyl)biguanide hydrochloride] |  | 7.49 |  |  | 32.34 |  | 1.81 | 
CC(C)CN=C(NCc1ccc2c(c1)OCO2)NC(=N)N.Cl [Example 23, N1-benzo[1,3]dioxol-5-ylmethyl-N2-isobutyl biguanide hydrochloride] |  | 84.58 | 59.80 |  | 68.02 | 36.29 | 100 | 
COCCOCCOCCN=C(NCc1ccc2c(c1)OCO2)NC(=N)N.Cl [Example 46, N1-benzo[1,3]dioxol-5-ylmethyl-N2-(2-(2-(2-methoxyethoxy)ethoxy)ethyl)biguanide hydrochloride] |  | 89.69 | 93.41 |  | 90.31 | 91.68 | 101 | 
CCCCCCc1ccc(N=C(NCc2ccc3c(c2)OCO3)NC(=N)N)cc1.Cl [Example 25, N1-benzo[1,3]dioxol-5-ylmethyl-N2-(4-hexylphenyl)biguanide hydrochloride] |  | 18.43 | 35.53 |  | 82.62 | 125.3 | 2.53 | 
Cl.N=C(N)NC(=Nc1cccc(C(F)(F)F)c1)NCc1ccc2c(c1)OCO2 [Example 10, N1-benzo[1,3]dioxol-5-ylmethyl-N2-(3-trifluoromethylphenyl)biguanide hydrochloride] |  | 11.52 |  |  | 33.41 |  | 2.76 | 
Cc1cccc(N=C(NCc2ccc3c(c2)OCO3)NC(=N)N)c1.Cl [Example 42, N1-benzo[1,3]dioxol-5-ylmethyl-N2-(3-methylphenyl)biguanide hydrochloride] |  | 75.45 | 36.78 |  | 46.42 | 28.95 | 56.1 | 
